Source: publication PMC5982776, “The novel anti-androgen candidate galeterone targets deubiquitinating enzymes, USP12 and USP46, to control prostate cancer growth and survival” (Oncotarget, 2018)

Experiments:
[1] = target: USP46 (Homo sapiens, UniProt P62068); experiment: Biacore SPR dose-dependent binding; IC50 from Ub-AMC enzyme inhibition with USP46/UAF1; assay type: biochemical
[2] = target: USP12 (Homo sapiens, UniProt O75317); experiment: Biacore SPR dose-dependent binding; IC50 from Ub-AMC enzyme inhibition with USP12/UAF1; assay type: biochemical
Sequence of USP12 (O75317 whole entry): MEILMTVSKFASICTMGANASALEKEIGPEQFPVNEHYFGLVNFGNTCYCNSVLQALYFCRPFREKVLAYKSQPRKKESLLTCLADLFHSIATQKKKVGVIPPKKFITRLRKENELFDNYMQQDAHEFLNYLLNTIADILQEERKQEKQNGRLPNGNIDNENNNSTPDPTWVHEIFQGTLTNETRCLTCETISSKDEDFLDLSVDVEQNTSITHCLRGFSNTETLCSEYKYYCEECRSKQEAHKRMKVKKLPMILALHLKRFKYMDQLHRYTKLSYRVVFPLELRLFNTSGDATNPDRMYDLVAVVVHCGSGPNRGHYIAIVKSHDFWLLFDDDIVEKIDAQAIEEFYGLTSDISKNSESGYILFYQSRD
Sequence of USP12 (Q8TAF3 whole entry partner): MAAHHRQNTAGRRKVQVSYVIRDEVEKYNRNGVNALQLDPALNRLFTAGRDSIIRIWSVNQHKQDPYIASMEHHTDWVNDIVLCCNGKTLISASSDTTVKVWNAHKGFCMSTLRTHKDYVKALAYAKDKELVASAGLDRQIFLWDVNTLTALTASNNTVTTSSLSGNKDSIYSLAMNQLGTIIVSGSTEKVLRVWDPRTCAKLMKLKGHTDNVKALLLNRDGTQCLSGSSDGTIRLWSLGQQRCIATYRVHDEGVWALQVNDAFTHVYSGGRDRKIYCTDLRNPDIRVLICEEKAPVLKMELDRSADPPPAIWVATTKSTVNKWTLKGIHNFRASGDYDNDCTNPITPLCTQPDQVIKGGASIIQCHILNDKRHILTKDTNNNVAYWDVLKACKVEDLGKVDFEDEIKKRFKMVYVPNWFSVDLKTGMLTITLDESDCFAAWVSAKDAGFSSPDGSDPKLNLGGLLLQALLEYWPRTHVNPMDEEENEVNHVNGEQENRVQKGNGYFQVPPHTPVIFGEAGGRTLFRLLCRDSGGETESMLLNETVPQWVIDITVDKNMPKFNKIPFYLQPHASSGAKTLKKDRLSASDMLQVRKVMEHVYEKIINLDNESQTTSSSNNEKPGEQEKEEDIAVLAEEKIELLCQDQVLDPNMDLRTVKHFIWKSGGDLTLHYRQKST

Sequence of USP46 (P62068 whole entry): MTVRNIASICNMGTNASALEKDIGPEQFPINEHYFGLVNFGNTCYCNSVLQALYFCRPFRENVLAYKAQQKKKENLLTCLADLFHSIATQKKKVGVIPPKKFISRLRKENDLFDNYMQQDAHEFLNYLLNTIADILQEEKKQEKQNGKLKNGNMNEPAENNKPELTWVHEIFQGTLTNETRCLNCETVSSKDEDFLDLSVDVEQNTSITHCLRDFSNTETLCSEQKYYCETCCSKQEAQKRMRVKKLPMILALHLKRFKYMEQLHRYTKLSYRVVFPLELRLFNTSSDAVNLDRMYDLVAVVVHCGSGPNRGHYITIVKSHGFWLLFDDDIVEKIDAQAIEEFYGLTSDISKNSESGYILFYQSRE
Sequence of USP46 (Q8TAF3 whole entry partner): as the sequence (Q8TAF3 whole entry partner) above

SMILES: C[C@]12CC[C@H](O)CC1=CC[C@@H]1[C@@H]2CC[C@]2(C)C(n3cnc4ccccc43)=CC[C@@H]12 [galeterone]
- IC50 [1]: 3.4 to 4.2 µM
- IC50 [2]: 2.1 to 3.4 µM
